Measurements as given in PubChem BioAssay AID1919006 (Molecular Pharmacology Branch, DTP, NCI, 2023).

System: 885512-296-R-J2-PDC complex spheroid growth, % test/control
Test: Anticancer human tumor 885512-296-R-J2-PDC patient-derived breast carcinoma cell line growth inhibition [AhR]
Conditions: for IC50: curve of first compound; for viability, T/C: stronger effect = lower value
Source text: Multicellular complex tumor spheroid response to aryl hydrocarbon receptor antagonists in combination with a variety of drugs and investigational agents in selected tumor cell lines
The current study was undertaken to assess response to aryl hydrocarbon receptor antagonists in combination with standard-of-care drugs and investigational agents in solid tumor complex spheroid models. Complex spheroids include a stromal component modeled by human endothelial cells (HUVEC) and fibroblasts modeled by human mesenchymal stem cells (MSCs). The concentration ranges selected for each drug and investigational agent were based upon clinically achievable concentrations if the clinical Cmax of the agent was known.
Compounds. The drugs and investigational agents: BAY 2416964 (NSC825713), GNF351 (NSC835774), CH-223191 (NSC835775), CPI-455 (NSC825282), aza-TdCyd (NSC777586), decitabine (NSC127716), belinostat (NSC758774), entinostat (NSC756642), pevonedistat (NSC761192), tazemetostat (NSC777109), talazoparib (NSC765396), olaparib (NSC753686), selinexor (NSC780203), nedisertib (M3814, NSC802822), bortezomib (NSC756655), venetoclax (NSC766270), doxorubicin (NSC123127), elimusertib (BAY189344, NSC800525), ceralasertib (AZD6738, NSC777638), TAK-243 (NSC785004), alisertib (NSC759677), etoposide (NSC141540), topotecan (NSC609699), eribulin (NSC707389), gemcitabine (NSC613327), carboplatin (NSC241240), cisplatin (NSC119875), and SN-38 (NSC673596) were obtained from the National Cancer Institute (NCI) Developmental Therapeutics Program Chemical Repository (32). The FDA-approved anticancer drug set is available from the Developmental Therapeutics Program at https://dtp.cancer.gov/organization/dscb/obtaining/available plates.htm. […] The stock solutions were prepared in dimethyl sulfoxide (DMSO, Sigma-Aldrich, St. Louis, MO, cat. D2650), except for the platinum compounds which were prepared in saline (Quality Biological, Gaithersburg, MD, cat. 114-055-101), at 800-fold the tested concentration and stored at -70 degrees C prior to their use. All drugs and investigational agents were tested over a range starting from a high concentration at or near the clinical Cmax and decreasing in half-log increments. If the clinical Cmax for an agent had not been determined, the highest concentration tested was 10 microM (Table 1).
Cell Culture. All cells were maintained in an incubator at 37 degrees C and 5% CO2 with 95% humidity. The PDC lines were cultured according to standard operating procedures established by the NCI PDMR (https://pdmr.cancer.gov). Briefly, all PDCs were thawed and cultured in Matrigel-coated flasks prepared with a working solution of 1X Ham's F-12 nutrient mix, without supplementation (Invitrogen, Waltham, MA, cat. 11765054), 100 U/mL penicillin-streptomycin (Invitrogen, cat. 15140122), and 2.5% Matrigel (Corning Inc., Corning, NY, cat. 354248) for the first three passages. All PDCs were cultured in complete DMEM/F-12 media containing advanced DMEM/F-12 (Invitrogen, cat. 12634028), 4.9% defined fetal bovine serum, heat inactivated (HyClone Laboratories Inc., Logan, UT, cat. SH30070.03HI), 389 ng/mL hydrocortisone (Sigma-Aldrich, cat. H4001), 9.7 ng/mL human EGF recombinant protein (Invitrogen, cat. PHG0313), 23.4 microg/mL adenine (Sigma-Aldrich, cat. A2786), 97.3 U/mL penicillin-streptomycin (Invitrogen, cat. 15140122), 1.9 mM L-glutamine (Invitrogen, cat. 25030081), and 9.7 microM Y-27632 dihydrochloride (Tocris Bioscience, Bristol, United Kingdom, cat. 1254). The PDCs were cultured in complete DMEM/F12 media without 10 microM Y-27632 dihydrochloride for at least two passages prior to the screen. The established cell lines NCI-H1341 and […] were cultured in DMEM/F-12, HEPES (Invitrogen, cat. 11330032), 5% defined fetal bovine serum (HyClone Laboratories Inc., cat. SH30070.03), ITS premix universal culture supplement [insulin (5 microg/mL), transferrin (5 microg/mL), and selenious acid (5 ng/mL)] […]

[1] = second compound 0.1 µM, first compound 0.0316 µM
[2] = second compound 0.1 µM, first compound 0.1 µM
[3] = second compound 0.1 µM, first compound 0.316 µM
[4] = second compound 0.1 µM, first compound 1 µM
[5] = second compound 0.316 µM, first compound 0.0316 µM
[6] = second compound 0.316 µM, first compound 0.1 µM
[7] = second compound 0.316 µM, first compound 0.316 µM
[8] = second compound 0.316 µM, first compound 1 µM
[9] = second compound 1 µM, first compound 0.0316 µM
[10] = second compound 1 µM, first compound 0.1 µM
[11] = second compound 1 µM, first compound 0.316 µM
[12] = second compound 1 µM, first compound 1 µM
[13] = second compound 3.16 µM, first compound 0.0316 µM
[14] = second compound 3.16 µM, first compound 0.1 µM
[15] = second compound 3.16 µM, first compound 0.316 µM
[16] = second compound 3.16 µM, first compound 1 µM
[17] = second compound 10 µM, first compound 0.0316 µM
[18] = second compound 10 µM, first compound 0.1 µM
[19] = second compound 10 µM, first compound 0.316 µM
[20] = second compound 10 µM, first compound 1 µM
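Also: spheroids exposed to compounds for seven days.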

Compound | IC50 (second compound 0.1 µM) | IC50 (second compound 0.316 µM) | IC50 (second compound 1 µM) | IC50 (second compound 3.16 µM) | IC50 (second compound 10 µM) | viability, T/C [1] | viability, T/C [2] | viability, T/C [3] | viability, T/C [4] | viability, T/C [5] | viability, T/C [6] | viability, T/C [7] | viability, T/C [8] | viability, T/C [9] | viability, T/C [10] | viability, T/C [11] | viability, T/C [12] | viability, T/C [13] | viability, T/C [14] | viability, T/C [15] | also measured
O=C(C=Cc1cccc(S(=O)(=O)Nc2ccccc2)c1)NO + CC(CO)NC(=O)c1cc(-c2ccc(Cl)cc2)nn(-c2cnn(C)c2)c1=O | 1490 nM | 1520 nM | 1510 nM | 1320 nM | 909 nM | 89.9% | 91.5% | 79.6% | 50.1% | 89.8% | 84.8% | 79.4% | 51% | 96% | 101% | 80.8% | 50.6% | 81.3% | 86.5% | 74.1% | viability, T/C (second compound 0.1 µM, first compound 3.16 µM): 40.4%; viability, T/C (second compound 0.1 µM, first compound 10 µM): 10.1%; viability, T/C (second compound 0.316 µM, first compound 3.16 µM): 39.9%; viability, T/C (second compound 0.316 µM, first compound 10 µM): 9.03%; viability, T/C (second compound 1 µM, first compound 3.16 µM): 40.9%; viability, T/C (second compound 1 µM, first compound 10 µM): 9.28%; viability, T/C [16]: 48%; viability, T/C (second compound 3.16 µM, first compound 3.16 µM): 38.1%; viability, T/C (second compound 3.16 µM, first compound 10 µM): 8.4%; viability, T/C [17]: 86.5%; viability, T/C [18]: 79.1%; viability, T/C [19]: 68.1%; viability, T/C [20]: 43.5%; viability, T/C (second compound 10 µM, first compound 3.16 µM): 31.9%; viability, T/C (second compound 10 µM, first compound 10 µM): 6.06%
CC1COCCN1c1cc(-c2ccnn2C)c2ccnc(-c3ccn[nH]3)c2n1 (stereo not given) + CC(CO)NC(=O)c1cc(-c2ccc(Cl)cc2)nn(-c2cnn(C)c2)c1=O | 43.1 nM | 34.1 nM | 35.1 nM | 29.1 nM | 19.6 nM | 67.8% | 10.4% | 3.86% | 2.47% | 54.2% | 10.6% | 3.26% | 2.5% | 53.4% | 10.7% | 2.7% | 2.39% | 47% | 6.94% | 2.32% | viability, T/C (second compound 0.1 µM, first compound 0.00316 µM): 112%; viability, T/C (second compound 0.1 µM, first compound 0.01 µM): 87.6%; viability, T/C (second compound 0.316 µM, first compound 0.00316 µM): 96.6%; viability, T/C (second compound 0.316 µM, first compound 0.01 µM): 84.4%; viability, T/C (second compound 1 µM, first compound 0.00316 µM): 93.4%; viability, T/C (second compound 1 µM, first compound 0.01 µM): 91.7%; viability, T/C (second compound 3.16 µM, first compound 0.00316 µM): 91.2%; viability, T/C (second compound 3.16 µM, first compound 0.01 µM): 87.7%; viability, T/C [16]: 2.05%; viability, T/C (second compound 10 µM, first compound 0.00316 µM): 90.5%; viability, T/C (second compound 10 µM, first compound 0.01 µM): 84.2%; viability, T/C [17]: 25.7%; viability, T/C [18]: 4.34%; viability, T/C [19]: 2.45%; viability, T/C [20]: 2.06%
